# Where a name gives a salt, the structure may show the parent alone.
# Legend:
# C57BL/6 male mice [1] = assay: DHT-induced alopecia (mouse model of male pattern baldness); format: in vivo; conditions: DHT pellet (2.5 mg 21 day) implanted subcutaneously; dosed topically once; visually graded for melanogenesis and hair regrowth
# Description: (§1) A mouse model of male pattern baldness is used to investigate the effectiveness of the present compounds for growing hair. Agonists for the sonic hedgehog pathway that act by binding and activating Smoothened were tested in a formulation of 50:30:20 PG:EtOH:water or 5:95 DMSO:acetone vehicle. C57BL/6 male mice (48-52 days old on arrival) from Charles River Labs were used on the study. The mice were housed and cared for according to established procedures. Food and water were ad libitum. On Day 0, the mice were shaved on their lower back, an area of ˜1.5 inches×˜2 inches with Wahl clippers using a surgical blade. On day −3, the mice were anesthetized with isoflurane, their back was rinsed with a pad of 70% ethanol, a placebo pellet or a DHT pellet (2.5 mg 21 day pellet) were implanted subcutaneously between the shoulder blades with a 10 gauge trochar. DHT pellet transplantation results in maintenance of existing hair follicles in the resting (telogen) phase. The hole was stapled with a sterile autoclip and the mice were returned to their cage after awaking. The mice were dosed topically once and visually graded daily, except weekends, for melanogenesis and hair regrowth of fur in the dosed area (Table 4).
# In the absence of treatment with the present compounds, the follicles remain in telogen rather than following the normal time course of the mouse hair cycle.
# C57BL/6 male mice [2] = assay: C57BL/6 hair growth after topical dosing; format: in vivo, mouse; conditions: dosed topically once on shaved lower back; visually graded for melanogenesis and hair regrowth
# Description: as §1
# sonic hedgehog pathway [3] = assay: Hedgehog reporter assay (gli-luciferase) in TM3 cells; format: cell-based, mouse; conditions: TM3 mouse Leydig cells, gli-luciferase reporter; read-out: TM3 Avg. EC50
# Method in brief: (§2)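 Stable gli-luciferase reporter lines (mouse TM3; human Daoy and HEPM) switched to 0.5% FBS medium, given compounds at 1-5 μM with or without octyl-modified hedgehog protein (1-5 ng/ml) for 24 hrs. Luminescence read; eleven-point 1:3 dose curves, activation expressed as percentage of plate controls (AMAX).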
# sonic hedgehog pathway [4] = assay: Human hedgehog reporter assay HEPM-GliLuc (HGL); format: cell-based; conditions: HepM human embryonic palatal mesenchymal cells, gli-luciferase reporter; read-out: HEPM Avg. EC50
# Method in brief: as §2
# sonic hedgehog pathway [5] = assay: Hedgehog reporter assay (gli-luciferase) in S12 cells; format: cell-based; conditions: S12 mouse embryonic mesenchymal cells, read-out: S12 Avg. EC50
# Method in brief: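 Stable gli-promoter luciferase reporter S12 mouse embryonic mesenchymal cells, switched to 0.5% FBS and treated with compounds (11-point, 1:3 dilutions) with or without octyl-modified hedgehog protein (1-5 ng/ml) for 24 h; luminescence read. AMAX as percent of high control; EC50 for half-maximal activation; >20% AMAX counted active.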
# sonic hedgehog pathway [6] = assay: Human hedgehog reporter assay Daoy-GliLuc (DGL); format: cell-based; conditions: Daoy human medulloblastoma cells, gli-luciferase reporter; read-out: Daoy Avg. EC50
# Method in brief: as §2
EC50 (sonic hedgehog pathway [3]) [nM],EC50 (sonic hedgehog pathway [6]) [nM],Compound,Androgenetic Alopecia (C57BL/6 male mice [1]),C57BL/6 Hair Growth (C57BL/6 male mice [2]),EC50 (sonic hedgehog pathway [4]) [nM],EC50 (sonic hedgehog pathway [5]) [nM]
,,CN[C@H]1CC[C@H](N(Cc2cc(-c3ccccc3)ccc2OC)C(=O)c2sc3ccccc3c2Cl)CC1,yes,yes,,
,,CN[C@H]1CC[C@H](N(Cc2cc(-c3cc(C)nc(C)c3)ccc2OC)C(=O)c2sc3ccccc3c2Cl)CC1,yes,yes,,
,,CN[C@H]1CC[C@H](N(Cc2cc(-c3ccc(C(N)=O)cc3)ccc2OC)C(=O)c2sc3c(F)ccc(F)c3c2Cl)CC1,yes,yes,,
,,CN[C@H]1CC[C@H](N(Cc2cc(-c3ccnc(C)c3)ccc2OC)C(=O)c2sc3ccccc3c2Cl)CC1,yes,yes,,
,,CN[C@H]1CC[C@H](N(Cc2cc(-c3ccc(S(C)(=O)=O)cc3)ccc2OC)C(=O)c2sc3ccccc3c2Cl)CC1,yes,yes,,
,,CCOc1ccc(-c2ccc(C)nc2)cc1CN(C(=O)c1sc2ccccc2c1Cl)[C@H]1CC[C@H](NC)CC1,,yes,,
,,CN[C@H]1CC[C@H](N(Cc2cc(-c3ccnc(C(=O)N(C)C)c3)ccc2OC)C(=O)c2sc3c(F)ccc(F)c3c2Cl)CC1,yes,yes,,
,,CN[C@H]1CC[C@H](N(Cc2cc(-c3ccncc3)ccc2OC)C(=O)c2sc3ccccc3c2Cl)CC1,yes,yes,,
,,CN[C@H]1CC[C@H](N(Cc2cc(-c3ccc(NS(C)(=O)=O)nc3)ccc2OC)C(=O)c2sc3c(F)ccc(F)c3c2Cl)CC1,,yes,,
,,CCOc1ccc(-c2ccc(C#N)cc2)cc1CN(C(=O)c1sc2ccccc2c1Cl)[C@H]1CC[C@H](NC)CC1,,yes,,
,,CN[C@H]1CC[C@H](N(Cc2cc(-c3ccnc(C(=O)OC)c3)ccc2OC)C(=O)c2sc3c(F)ccc(F)c3c2Cl)CC1,yes,yes,,
,,CN[C@H]1CC[C@H](N(Cc2cc(-c3ccnc(C(=O)O)c3)ccc2OC)C(=O)c2sc3c(F)ccc(F)c3c2Cl)CC1,,no,,
< 50,< 50,"CNC1CCC(N(Cc2cc(-c3ccc(C(=O)N(C)C)cc3)ccc2OC)C(=O)c2sc3c(F)ccc(F)c3c2Cl)CC1 (stereo not shown) [Compound 333, 3-Chloro-4,7-difluoro-benzo[b]thiophene-2-carboxylic acid (4′-dimethylcarbamoyl-4-methoxy-biphenyl-3-ylmethyl)-(4-methylamino-cyclohexyl)-amide hydrochloride]",,,< 50,< 50
< 50,< 50,"CC[C@H]1CC[C@@H](N(Cc2cc(-c3ccc(C)cc3)ccc2OC)C(=O)C2=C(C)c3c(C)ccc(C)c3C2)CC1 [Compound 334, 3-Chloro-4,7-difluoro-benzo[b]thiophene-2-carboxylic acid[2-methoxy-5-(6-methyl-pyridin-3-yl)-benzyl]-(4-methylamino-cyclohexyl)-amide bis(trifluoroacetate)]",,,< 50,< 50
< 50,< 50,"CN[C@H]1CC[C@@H](N(Cc2cc(-c3ccc(S(C)(=O)=O)cc3)ccc2OC)C(=O)C2=C(Cl)c3c(C)ccc(C)c3C2)CC1 [Compound 335, 3-Chloro-4,7-difluoro-benzo[b]thiophene-2-carboxylic acid(4′-methanesulfonyl-4-methoxy-biphenyl-3-ylmethyl)-(4-methylamino-cyclohexyl)-amide hydrochloride]",,,< 50,< 50
< 50,< 50,"CN[C@H]1CC[C@@H](N(Cc2cc(-c3ccc(N(C)C(C)=O)cc3)ccc2OC)C(=O)c2sc3c(C)ccc(C)c3c2C)CC1 [Compound 336, 3-Chloro-4,7-difluoro-benzo[b]thiophene-2-carboxylic acid[4′-(acetyl-methyl-amino)-4-methoxy-biphenyl-3-ylmethyl]-(4-methylamino-cyclohexyl)-amide hydrochloride]",,,< 50,< 50
< 50,< 50,"CN[C@H]1CC[C@@H](N(Cc2cc(-c3ccc(CO)cc3)ccc2OC)C(=O)c2sc3c(C)ccc(C)c3c2Cl)CC1 [Compound 338, 3-Chloro-4,7-difluoro-benzo[b]thiophene-2-carboxylic acid(4′-hydroxymethyl-4-methoxy-biphenyl-3-ylmethyl)-(4-methylamino-cyclohexyl)-amide trifluoroacetate]",,,< 50,< 50
< 50,< 50,"CNc1cc(-c2ccc(OC)c(CN(C(=O)c3sc4c(F)ccc(F)c4c3Cl)C3CCC(NC)CC3)c2)ccn1 (stereo not shown) [Compound 357, 3-Chloro-4,7-difluoro-benzo[b]thiophene-2-carboxylic acid[2-methoxy-5-(2-methylamino-pyridin-4-yl)-benzyl]-(4-methylamino-cyclohexyl)-amide bis(trifluoroacetate)]",,,< 50,< 50
< 50,< 50,"CNC1CCC(N(Cc2cc(-c3ccccn3)ccc2OC)C(=O)c2sc3c(F)ccc(F)c3c2Cl)CC1 (stereo not shown) [Compound 367, 3-Chloro-4,7-difluoro-benzo[b]thiophene-2-carboxylic acid (2-methoxy-5-pyridin-2-yl-benzyl)-(4-methylamino-cyclohexyl)-amide dihydrochloride]",,,< 50,< 50
< 50,< 50,"CNC1CCC(N(Cc2cc(-c3ccnc(C(=O)OC)c3)ccc2OC)C(=O)c2sc3c(F)ccc(F)c3c2Cl)CC1 (stereo not shown) [Compound R5, Methyl 4-(3-{[(3-chloro-4,7-difluoro-benzo[b]thiophene-2-carbonyl)-(4-methylamino-cyclohexyl)-amino]-methyl}-4-methoxy-phenyl)-pyridine-2-carboxylate]",,,< 50,< 50
,,CN[C@H]1CC[C@H](N(Cc2cc(-c3ccc(N)nc3)ccc2OC)C(=O)c2sc3cccc(F)c3c2Cl)CC1 [drawing 702],yes,yes,,

Compound,EC50 (sonic hedgehog pathway [3]) [nM],EC50 (sonic hedgehog pathway [6]) [nM],Androgenetic Alopecia (C57BL/6 male mice [1]),C57BL/6 Hair Growth (C57BL/6 male mice [2]),EC50 (sonic hedgehog pathway [4]) [nM],EC50 (sonic hedgehog pathway [5]) [nM]
"CNC1CCC(N(Cc2cc(-c3ccnc(C(N)=O)c3)ccc2OC)C(=O)c2sc3c(F)ccc(F)c3c2Cl)CC1 (stereo not shown) [Compound 354 (R17), 4-(3-{[(3-Chloro-4,7-difluoro-benzo[b]thiophene-2-carbonyl)-(4-methylamino-cyclohexyl)-amino]-methyl}-4-methoxy-phenyl)-pyridine-2-carboxylic acid amide dihydrochloride]",< 50,< 50,,,< 50,< 50
